Patent publication US11547761B1, “Antibody adjuvant conjugates” (The Board of Trustees of the Leland Stanford Junior …, priority 2016, dated 2023)

Key:
[1] = system: human APCs (myeloid cells); test: Cytokine secretion from human APCs / myeloid cells (cell free supernatants); type: cell-based; conditions: 36 hours of stimulation; compared to equimolar unconjugated antibody
Procedure: After 18 hours, cell free supernatants were analyzed for cytokine secretion via cytokine bead arrays; n=3. P-values≤0.05 depicted by *, P-values≤0.01 depicted by **, P-values≤0.001 depicted by ***, P-values≤0.0001 depicted by ****.
2×10^5 APCs were incubated with or without 6.5×10^5 autologous or allogeneic CFSE-labeled tumor cells in 96-well plates (Corning) containing IMDM medium (Gibco) supplemented with 10% fetal bovine serum, 100 U/mL penicillin, 100 μg/mL streptomycin, 2 mM L-glutamine, sodium pyruvate, non-essential amino acids, 50 μM 2-ME and, where indicated, various concentrations of anti-tumor antibody and the indicated adjuvants. […]
While the expression of T cell stimulatory molecules such as CD40, CD86 and HLA-DR is necessary for effective T cell activation, APCs also influence the nature of the ensuing immune response through the secretion of cytokines. Therefore, the capacity of immunoconjugates to elicit cytokine secretion in human APCs following stimulation was investigated as described above.
The capacity of these immunoconjugates to elicit cytokine secretion in human APCs following stimulation was investigated as described in Example 3 above.
2×10^5 APCs were incubated with or without 6.5×10^5 allogeneic CFSE-labeled tumor cells in 96-well plates (Corning) containing IMDM medium (Gibco) supplemented with 10% fetal bovine serum, 100 U/mL penicillin, 100 μg/mL streptomycin, 2 mM L-glutamine, sodium pyruvate, non-essential amino acids and, where indicated, various concentrations of unconjugated CD20 antibody, and immunoconjugates of the invention were prepared according to the examples above. […]

[2] = system: human APCs (myeloid cells); test: APC-tumor co-culture / myeloid cell stimulation, surface markers by flow cytometry; type: cell-based; conditions: 18 hours of stimulation; compared with the corresponding unconjugated antibody unless the value names another comparator
Text: Human antigen presenting cells (APCs) were negatively selected from human peripheral blood mononuclear cells obtained from healthy blood donors (Stanford Blood Center) by density gradient centrifugation using a RosetteSep Human Monocyte Enrichment Cocktail (Stem Cell Technologies) containing monoclonal antibodies against CD2, CD3, CD8, CD19, CD56, CD66b and CD235a. Immature APCs were subsequently purified to >97% purity via negative selection using an EasySep Human Monocyte Enrichment Kit without CD16 depletion containing monoclonal antibodies against CD2, CD3, CD19, CD20, CD56, CD66b, CD123 and CD235a.
Tumor cells were resuspended in PBS with 0.1% fetal bovine serum (FBS) at 1 to 10×10^6 cells/mL. Cells were subsequently incubated with 2 μM CFSE to yield a final concentration of 1 μM. The reaction was ended after 2 minutes via the addition of 10 mL complete medium with 10% FBS and washed once with complete medium. Cells were either fixed in 2% paraformaldehyde and washed three times with PBS or left unfixed prior to freezing the cells in 10% DMSO, 20% FBS and 70% medium.
2×10^5 APCs were incubated with or without 6.5×10^5 autologous or allogeneic CFSE-labeled tumor cells in 96-well plates (Corning) containing IMDM medium (Gibco) supplemented with 10% fetal bovine serum, 100 U/mL penicillin, 100 μg/mL streptomycin, 2 mM L-glutamine, sodium pyruvate, non-essential amino acids, 50 μM 2-ME and, where indicated, various concentrations of anti-tumor antibody and the indicated adjuvants. Cells and cell-free supernatants were analyzed after 18 hours via flow cytometry.
Human antigen presenting cells (APCs) were negatively selected from human peripheral blood mononuclear cells obtained from healthy blood donors (Stanford Blood Center) by density gradient centrifugation using a RosetteSep Human Monocyte Enrichment Cocktail (Stem Cell Technologies) containing monoclonal antibodies against […]. Immature APCs were subsequently purified to >97% purity via negative selection using an EasySep Human Monocyte Enrichment Kit without CD16 depletion containing monoclonal antibodies against CD14, CD16, CD40, CD86, CD123, and HLA-DR.
2×10^5 APCs were incubated with or without 6.5×10^5 autologous or allogeneic CFSE-labeled tumor cells in 96-well plates (Corning) containing IMDM medium (Gibco) supplemented with 10% fetal bovine serum, 100 U/mL penicillin, 100 μg/mL streptomycin, 2 mM L-glutamine, sodium pyruvate, non-essential amino acids, 50 μM 2-ME and, where indicated, various concentrations of antibody. Cells and cell-free supernatants were analyzed after 18 hours via flow cytometry.
2×10^5 APCs were incubated with or without 6.5×10^5 allogeneic CFSE-labeled tumor cells in 96-well plates (Corning) containing IMDM medium (Gibco) supplemented with 10% fetal bovine serum, 100 U/mL penicillin, 100 μg/mL streptomycin, 2 mM L-glutamine, sodium pyruvate, non-essential amino acids and, where indicated, various concentrations of unconjugated CD20 antibody, and immunoconjugates of the invention were prepared according to the examples above. Cells and cell-free supernatants were analyzed after 18 hours via flow cytometry or ELISA.

Rituximab-Pam3CSK4 Boltbody
superior: IL-1β secretion from myeloid cells [1] | TNFα secretion from myeloid cells [1] | CD16 downregulation on myeloid cells [2] | CD40 upregulation on myeloid cells [2] | CD86 upregulation on myeloid cells [2] | CD123 upregulation on myeloid cells [2]

Rituximab-Pam2CSK4 Boltbody
superior: IL-1β secretion from myeloid cells [1] | TNFα secretion from myeloid cells [1] | CD16 downregulation on myeloid cells [2] | CD40 upregulation on myeloid cells [2] | CD86 upregulation on myeloid cells [2]
